From PMC10126473 (Frontiers in Pharmacology, 2023)

Assay: Mouse PK and tissue distribution study (non-compartmental analysis)
Details: male, C57BL/6, mouse, in vivo; for Cmax: Cmax Obs; for Tmax: Tmax Obs
Procedure: The in-life study (Animal Study Protocol Number: NIH ORS-51) was conducted at the NIH Animal Facility by the Division of Veterinary Resources (DVR, Bethesda, MD). In this study, 25–35 g male C57BL/6 mice (Charles River Laboratories, Frederick, MD) were used. For the IV groups, 66 mice (33 mice per dosing group, 3 mice per timepoint) were used for a single bolus IV dose of 3 or 10 mg/kg of PDN via tail vein injection. […] The IV and PO doses were selected to obtain a complete concentration profile in plasma and tissues, based on a preliminary study. Animals were not fasted in this study. […] All dosing solutions were freshly prepared on the day of dosing. At designated time points, blood samples were collected, and mice were euthanized with CO2 in accordance with NIH ARAC Guidelines after blood collection. The death was ensured by cervical dislocation or transthoracic puncture. Lung, liver, adipose, brain, heart, small intestine, kidney, skeletal muscle, and spleen samples were obtained from mice. […] Tissue samples were rinsed with cold saline, dried on filtrate paper, weighed, and snap frozen by placing into dry ice after collection. All samples were stored at −80°C until the analysis. All blood samples were collected in K2EDTA tubes and centrifuged at 3000 g for 10 min at 4°C to obtain plasma. Plasma samples were transferred to tubes preloaded with NaF (final concentration at 5 mM in 200 µL plasma) and stored at −80°C until analysis.
For fat tissue, an additional 3-fold volume of acetonitrile was added to the water homogenate and was vortexed in a shaker for another 30 min.
A 10 μ aliquot of samples, blank controls (blank plasma or tissue homogenates), quality controls (QC), and standards were added into 200 μ acetonitrile solution with 100 ng/mL tolbutamide (internal standard, IS). All samples were then thoroughly shaken for 5 min to precipitate proteins. The samples were centrifuged at 3000 rpm and 4°C for 30 min. The supernatant was injected for UPLC-MS/MS analysis.
The mobile phase consisted of 0.1% formic acid in water (A) and 0.1% formic acid in acetonitrile (B), the flow rate was 600 μL/min. […] All analyses were carried out using a Waters Acquity I-Class UPLC interfaced with a Waters Xevo TQ-S mass spectrometer. The mass spectrometer multiple reaction monitoring (MRM) experiment was operated with an ESI source at negative mode with spray voltage of 1 kV, and temperature of 600°C. Both Q1 and Q3 were set at unit resolution. […] The correlation coefficients of the calibration curves were all greater than 0.99. […] The linear range, precision and accuracy of QCs in various tissues and plasma are shown in Supplementary Table S1 and Supplementary Table S2.
The area under the concentration vs. time curve (AUC) was calculated using the linear trapezoidal method. The terminal rate constant (λ) was obtained from the slope of at least three data points of the apparent terminal phase of the log linear concentration vs. time curve. AUC0–∞ was estimated as the sum of the AUC0–t (where t is the time of the last measurable concentration) and Ct/λ. […] Bioavailability (F) was calculated using ratios of dose-normalized AUC of PO and IV administration.

[1] = po, 10 mg/kg, mice, PO 10 mg/kg PDN, adipose
[2] = po, 10 mg/kg, mice, PO 10 mg/kg PDN, brain

Structure (SMILES): O=C(Nc1ccc([N+](=O)[O-])cc1Cl)c1cc(Cl)ccc1OC(=O)N1CCNCC1 [PDN]
- Kp: 8 to 44
- AUC(0-inf) (iv, 3 mg/kg): 1190 ng·h/mL
- clearance (iv, 3 mg/kg, CLp Obs, mice, IV 3 mg/kg PDN, plasma): 1.05 mL/min
- Vd (iv, 3 mg/kg, Vdss Obs, mice, IV 3 mg/kg PDN, plasma): 0.28 L
- half-life (iv, 3 mg/kg, t1/2 Obs, mice, IV 3 mg/kg PDN, adipose): 167 min
- half-life (iv, 3 mg/kg, t1/2 Obs, mice, IV 3 mg/kg PDN, brain): 134 min
- half-life (iv, 3 mg/kg, t1/2 Obs, mice, IV 3 mg/kg PDN, heart): 103 min
- half-life (iv, 3 mg/kg, t1/2 Obs, mice, IV 3 mg/kg PDN, intestine): 161 min
- half-life (iv, 3 mg/kg, t1/2 Obs, mice, IV 3 mg/kg PDN, kidney): 186 min
- half-life (iv, 3 mg/kg, t1/2 Obs, mice, IV 3 mg/kg PDN, lung): 185 min
- half-life (iv, 3 mg/kg, t1/2 Obs, mice, IV 3 mg/kg PDN, muscle): 115 min
- half-life (iv, 3 mg/kg, t1/2 Obs, mice, IV 3 mg/kg PDN, plasma): 184 min
- half-life (iv, 3 mg/kg, t1/2 Obs, mice, IV 3 mg/kg PDN, spleen): 206 min
- AUC(0-inf) (iv, 10 mg/kg): 4100 ng·h/mL
- clearance (iv, 10 mg/kg, CLp Obs, mice, IV 10 mg/kg PDN, plasma): 1.02 mL/min
- Vd (iv, 10 mg/kg, Vdss Obs, mice, IV 10 mg/kg PDN, plasma): 0.31 L
- half-life (iv, 10 mg/kg, t1/2 Obs, mice, IV 10 mg/kg PDN, brain): 203 min
- half-life (iv, 10 mg/kg, t1/2 Obs, mice, IV 10 mg/kg PDN, heart): 172 min
- half-life (iv, 10 mg/kg, t1/2 Obs, mice, IV 10 mg/kg PDN, intestine): 227 min
- half-life (iv, 10 mg/kg, t1/2 Obs, mice, IV 10 mg/kg PDN, kidney): 287 min
- half-life (iv, 10 mg/kg, t1/2 Obs, mice, IV 10 mg/kg PDN, liver): 216 min
- half-life (iv, 10 mg/kg, t1/2 Obs, mice, IV 10 mg/kg PDN, lung): 211 min
- half-life (iv, 10 mg/kg, t1/2 Obs, mice, IV 10 mg/kg PDN, muscle): 279 min
- half-life (iv, 10 mg/kg, t1/2 Obs, mice, IV 10 mg/kg PDN, plasma): 211 min
- half-life (iv, 10 mg/kg, t1/2 Obs, mice, IV 10 mg/kg PDN, spleen): 194 min
- half-life (iv, 10 mg/kg, t1/2 in all other tissues, mice, IV 3 and 10 mg/kg PDN): 102 to 288 min
- half-life (iv, 10 mg/kg, terminal t1/2 in plasma, mice, IV 3 and 10 mg/kg PDN): 186 to 210 min
- clearance (iv, 10 mg/kg, total plasma clearance (CLp), mice, IV 3 and 10 mg/kg PDN): 1.02 to 1.05 mL/min
- Vd (iv, 10 mg/kg, volume of distribution at steady-state (Vdss), mice, IV 3 and 10 mg/kg PDN): 0.28 to 0.31 L
- AUC(0-inf) (po, 10 mg/kg): 3520 ng·h/mL
- CL/F (po, 10 mg/kg): 1.18 mL/min
- Vd/F (po, 10 mg/kg): 0.33 L
- Cmax [1]: 547 ng/g
- Cmax [2]: 715 ng/g
- Cmax (po, 10 mg/kg, mice, PO 10 mg/kg PDN, heart): 3040 ng/g
- Cmax (po, 10 mg/kg, mice, PO 10 mg/kg PDN, intestine): 15400 ng/g
- Cmax (po, 10 mg/kg, mice, PO 10 mg/kg PDN, kidney): 5860 ng/g
- Cmax (po, 10 mg/kg, mice, PO 10 mg/kg PDN, liver): 240 ng/g
- Cmax (po, 10 mg/kg, mice, PO 10 mg/kg PDN, lung): 22600 ng/g
- Cmax (po, 10 mg/kg, mice, PO 10 mg/kg PDN, muscle): 1120 ng/g
- Cmax (po, 10 mg/kg, mice, PO 10 mg/kg PDN, plasma): 606 ng/mL
- Cmax (po, 10 mg/kg, mice, PO 10 mg/kg PDN, spleen): 8080 ng/g
- bioavailability (po, 10 mg/kg, F (bioavailability) Obs, mice, PO 10 mg/kg PDN): 85.6%
- Tmax [1]: 1.5 h
- Tmax [2]: 1.5 h
